This is an account of results in publication PMC8298232 (Archives of Toxicology, 2021).

Series [1] has as its system beagle dogs. The following applies: ref ECHA [2013], Geigy [1970], Til et al. [1968]; cited from earlier work.
Series [2] in a line: Shares of conjugated analytes in urine (analysis with and without β-glucuronidase/arylsulfatase hydrolysis). The conditions noted are these: urine of one volunteer. As to the method: The analysis of urine samples was performed with and without hydrolysis for one volunteer to determine the shares of analytes conjugated with glucuronic acid or sulfate. Initially, urine samples were thawed, equilibrated to room temperature and homogenized using a vortex mixer. Afterwards, the Monovettes® were centrifuged for 2 min at 1600 g to sediment solid residue in the sample. 1 mL of the sample was transferred into a 15 mL conical tube (Sarstedt, Nümbrecht, Germany). Without hydrolysis, 1 mL of the urine samples was prepared with 200 μL of ammonium acetate buffer (1 mol/L, pH 6) and 10 μL of the internal standard mix solution. […] Finally, the calculated analyte excretion rates (see Sect. “Evaluation of renal elimination”) obtained with hydrolysis were correlated with the ones prepared without hydrolysis for every detected compound. A linear curve fit was applied to the plotted data points. The resulting slope of the regression line described the percentage of free and therefore unconjugated analyte.
Therefore, urine samples of one volunteer were analyzed with and without addition of β-glucuronidase/arylsulfatase from Helix pomatia and incubation according to the standard procedure previously published (Denghel and Göen [2020]) (see Sect. “Analysis of urine samples without hydrolysis”).

The test system of series [3] is beagle dogs. The following applies: ref US EPA [2009]; cited from earlier work.
A short description of series [4]: Kinetics of UV 328 and its metabolites in blood after single oral exposure of volunteers. Type of series: in vivo, human. As to the method: Furthermore, blood samples were drawn from each volunteer 2, 4, 6, 8, 10, 24, […] 48 h after exposure. In summary, […] blood samples were collected from every volunteer. One volunteer donated two EDTA—Monovettes® (Sarstedt, Nümbrecht, Germany) for every time point. So, for every sampling time one sample was kept as whole blood while the plasma fraction was extracted for the other. In this case, the respective blood vessels were centrifuged at 800 × g for 5 min. The supernatants were transferred to 15 mL conical plastic tubes (Sarstedt, Nümbrecht, Germany). Both blood and plasma samples were stored frozen at − 50 °C until analysis.
Analysis of blood samples was performed according to a previously published method (Denghel and Göen [2021]). In summary, blood proteins and cellular components were precipitated by the addition of ACN. Afterwards, the supernatant was diluted with sodium chloride solution and the investigated analytes were extracted by dispersive liquid–liquid microextraction (DLLME) using a mixture of CH2Cl2 and ACN. […] Variation coefficients ranged from 2 to 9% for precision in series and from 3 to 11% for interday precision. Additionally, relative recovery rates between 80 and 100% were found.
The ln-transformed mean excretion curve was plotted against the time (in h) to obtain the slope (kel, elimination rate constant) and the excretion half-life (t1/2) as follows: t1/2=ln2/|kel|.

Series [5] relates to animal studies. The following applies: oral exposure, ref CIBA-GEIGY [1978], Kim et al. [2011a]; cited from earlier work.
A short description of series [6]: Renal elimination kinetics of UV 328 and its metabolites in urine after single oral exposure. The conditions noted are these: n = 3. The protocol:
Three volunteers (two men and one person, mean age 37.3 ± 15.5, mean body weight 81.3 ± 6.1 kg) were selected for the in vivo study. Prior to oral exposure, every volunteer collected one urine sample. Additionally, one blood sample was taken using EDTA-Monovettes® (Sarstedt, Nümbrecht, Germany) before exposure. […] Thereby, a safety factor of 100 was considered for single application and interspecies differences, resulting in a dose of 0.3 mg/kg bw. […] Participants collected the total urine volume of each void separately throughout 72 h and recorded the respective sampling times. […] The urine samples were volumetrically measured for each sampling point, aliquoted in urine Monovettes® (Sarstedt, Nümbrecht, Germany) and stored frozen at − 50 °C until analysis.
The urine samples were processed according to a previously published procedure (Denghel and Göen [2020]). In brief, urine samples were enzymatically hydrolyzed using β-glucuronidase/arylsulfatase from Helix pomatia. […] The extracts were derivatized with BSA/TMCS and TSIM and finally measured via GC–MS/MS with advanced electron ionization (AEI).
Thereby, RE,i is the renal excretion rate for the urine sample i (in µg/h), ci is the analyte concentration in the urine sample (in µg/L), Vi is the volume of the urine sample (in L) and ti and ti-1 are the elapsed time values (in h) of the sample and the previous sample, respectively.
Afterwards, the time course of the excretion rates RE,i was recorded for the middle of the respective sampling period (ti,m in h) according to the equation: ti,m=ti-1+ti-ti-1/2.
The current excretion rates were plotted as a function of the average time of the respective sampling period for every volunteer and each analyte.
Finally, mean excretion curves were calculated by taking the average of related urinary sampling times and the corresponding renal excretion rates (in µg/h) for all volunteers’ samples (arithmetic mean ± standard deviation). The mean cumulative excreted amount (in µmol) of all volunteers was obtained by addition of each molar excreted amount: ∑i=0nci×Vi/M.
Thereby, ci is the concentration of the metabolite in urine (in µg/L), Vi is the volume of the respective urine sample (in L) and M is the molar mass of the respective metabolite (in µg/µmol).
Afterwards, excretion half-lives (t1/2) (in h) were ascertained as described in Sect. “Evaluation of blood kinetics” by plotting the current excretion rates as function of time.

Series [7] in a line: Medical laboratory values (liver, kidney, LDH, CK) of volunteers before, during and one week after oral exposure. The format is in vivo, human. The following applies: third subject, seven days after exposure; not attributed to the exposure by the investigators. As to the method:
Because of potential confounding effects on those liver and kidney laboratory parameters and their potential to indicate massive cell destruction, lactate dehydrogenase (LDH) and creatinine kinase (CK) were included in the medical blood work as well. All medical laboratory values were carried out by an accredited medical laboratory. Thus, initial pathological laboratory values for liver or kidney function were defined as further exclusion criteria for study participation. In case of occurrence of relevant pathological medical values for liver or kidney function during the ongoing study which could be attributable to the study exposure, no further subjects were to be included until further clarification, potentially leading to a full cessation of the whole study.

For series [8], the system named is rats. The conditions noted are these: ref ECHA [2013], Geigy [1970], Til et al. [1968]; cited from earlier work.
The mark [9] stands for this setting: both sexes, human, in vivo, po, 0.3 mg/kg.

Structures are written as SMILES.

`CCC(C)(C)c1cc(-n2nc3ccccc3n2)c(O)c(C(C)(C)CC)c1` [UV 328, 2-(2H-Benzotriazol-2-yl)-4,6-di-tert-pentylphenol]: the “toxicity after repeated oral administration” value in series [1] is “specific target organ toxicity to liver and kidneys”; in series [8] it was “specific target organ toxicity to liver and kidneys”. Further, in series [2], the “share excreted via urine without conjugation to glucuronic acid or sulfate” value is “about 84%”. Further, the “slope of the linear regression line (excretion rates without vs with hydrolysis)” value in series [2] (slope = fraction of free analyte) was 0.84. In series [3], the “No Observed Adverse Effect Level (NOAEL)” value was 30 mg UV 328/kg bw/day. Besides, in series [4] (blood samples 8 h after exposure, without hydrolysis, n = 3), the “share of all detected parameters in blood” value is listed as 95.2 ± 2.0%. The compound further yielded a concentration at 24 h in series [4] (setting [9]) of 83.1 ± 54.2 ng/mL. Also, the concentration at 48 h in series [4] (setting [9]) was found to be 29.1 ± 19.4 ng/mL. In addition, the half-life (as a rule, the time needed for the level to fall by half in the phase considered) in series [4] (both sexes, human, in vivo, po, 0.3 mg/kg, t1/2 (0–24 h) in blood) was 5.3 h; in series [4] (both sexes, human, in vivo, po, 0.3 mg/kg, t1/2 (24–48 h) in blood), 16.3 h. In series [4] (both sexes, human, whole blood, po, 0.3 mg/kg bw, human whole blood, oral 0.3 mg UV 328/kg body weight, mean ± SD, n = 3), the Cmax – broadly, the peak of the concentration-time curve – turned out to be 736 ± 489 ng/mL. Moreover, the Tmax (usually the time at which the peak concentration occurs) in series [4] (both sexes, human, whole blood, po, 0.3 mg/kg bw, human whole blood, oral 0.3 mg UV 328/kg body weight, n = 3, read-out: tmax in blood) was 8 h. For the same compound, the cmax in blood in series [4] (human whole blood, oral 0.3 mg UV 328/kg body weight, mean ± SD, n = 3) was 736.2 ± 488.7 µg/L. The acute toxicity result in series [5] is recorded as “No acute toxicity was observed”. Also, the “REmax (maximum renal excretion rate)” value in series [6] (human urine with hydrolysis, oral 0.3 mg/kg bw, mean ± SD) was 0.013 ± 0.003 µg/h. The “share of cumulative amounts of all quantified analytes in urine” value in series [6] (urine with hydrolysis, cumulative within 72 h) is 1.0 ± 0.1%. The “CK value (creatinine kinase)” value in series [7] is recorded as 6784 U/L.
